The text below walks through data of patent US7223755B2, “Hydroxymorpholinone derivative and medicinal use thereof” (Senju Pharmaceutical Co., Ltd., priority 2002, dated 2007).

The subject of data set [1] is T1, μ-calpain (derived from human erythrocyte).
T1 construct: μ-calpain (derived from human erythrocyte, manufactured by Cosmo Bio Co., Ltd.); purchased Cosmo Bio Co., Ltd; host or cells: human erythrocyte (natural source)
In words: μ-calpain inhibitory activity (casein substrate, Coomassie brilliant blue). Type of data set: biochemical. Conditions: 0.5 mg/mL casein, 30° C. for 60 min; read-out: 50% enzyme inhibitory concentration [IC50 (μM)] μ-calpain. The procedure:
The μ-calpain and m-calpain inhibitory activities were determined according to the method described in a reference [Anal. Biochem. vol. 208, 387-392 (1993)]. To be specific, a reaction mixture (200 μL) containing 0.5 mg/mL casein, 50 mM Tris-HCl buffer (pH 7.4), 20 mM dithiothreitol and 0.03 enzyme unit of μ-calpain (derived from human erythrocyte, manufactured by Cosmo Bio Co., Ltd.) or m-calpain (derived from pig kidney, manufactured by Cosmo Bio Co., Ltd.), dimethyl sulfoxide solution (2.5 μL) containing various concentrations of a test drug and 20 mM aqueous calcium chloride solution (50 μL) were added to a 96 well plate. After reaction at 30° C. for 60 min, the reaction mixture (100 μL) was transferred to a different 96 well plate, and purified water (50 μL) and 50% Coomassie brilliant blue solution (100 μL) were added. The plate was left standing at room temperature for 15 min and absorbance at 595 nm was measured. Using a value, measured after treating in the same manner without a test drug, as a control and a value, obtained by adding 1 mM EDTA instead of 20 mM aqueous calcium chloride solution, as a blank value, an inhibitory rate was calculated from the following formula and the amount (IC50) necessary for 50% inhibition was determined. Inhibitory rate (%)={1−(measured value−blank value)/(control value−blank value)}×100 Test Results 1

On to `CC(C)C[C@@H]1OC(O)[C@H](Cc2ccccc2)NC1=O` (stereo partly drawn) [Compound 1, (2S,5S)-5-benzyl-6-hydroxy-2-(2-methylpropyl)-3-morpholinone], for which, in data set [1], the IC50 was determined as 0.7 µM. For orientation: melting point means the temperature of the solid-liquid transition. For `CC(C)C[C@@H]1OC(O)[C@H](CCc2ccccc2)NC1=O` (stereo partly drawn) [Compound 2, (2S,5S)-6-hydroxy-2-(2-methylpropyl)-5-(2-phenylethyl)-3-morpholinone], the melting point was in the range of 94.1 to 95.8 °C. The IC50 in data set [1] stood at 0.51 µM. The matching figures for `CC(C)C[C@@H]1OC(O)[C@H](Cc2ccc3ccccc3c2)NC1=O` (stereo partly drawn) [Compound 3, (2S,5S)-6-hydroxy-2-(2-methylpropyl)-5-(2-naphthylmethyl)-3-morpholinone]: 86.5 to 88.5 °C and 0.49 µM. The matching figures for `CC(C)C[C@@H]1OC(O)[C@@H](Cc2ccccc2)NC1=O` (stereo partly drawn) [Compound 4, (2S,5R)-5-benzyl-6-hydroxy-2-(2-methylpropyl)-3-morpholinone]: 130.9 to 131.8 °C and 5.9 µM. On to `CC(C)[C@@H]1OC(O)[C@H](Cc2ccccc2)NC1=O` (stereo partly drawn) [Compound 5, (2S,5S)-5-benzyl-6-hydroxy-2-(1-methylethyl)-3-morpholinone], for which the IC50 in data set [1] amounted to 2.3 µM. Consider `CC(C)[C@@H]1OC(O)[C@H](CCc2ccccc2)NC1=O` (stereo partly drawn) [Compound 6, (2S,5S)-6-hydroxy-2-(1-methylethyl)-5-(2-phenylethyl)-3-morpholinone], for which the IC50 in data set [1] was 3.5 µM. `O=C1N[C@@H](Cc2ccccc2)C(O)O[C@H]1Cc1ccccc1` (stereo partly drawn) [Compound 7, (2S,5S)-2,5-dibenzyl-6-hydroxy-3-morpholinone] returned a melting point of 165.5 to 166 °C. The IC50 in data set [1] is 17 µM. On to `CC(C)C[C@@H]1OC(O)[C@H](Cc2ccc(O)cc2)NC1=O` (stereo partly drawn) [Compound 8, (2S,5S)-6-hydroxy-5-((4-hydroxyphenyl)methyl)-2-(2-methylpropyl)-3-morpholinone], for which the IC50 in data set [1] was found to be 2.5 µM. The same measure, in the same setting: for `COc1ccc(C[C@@H]2NC(=O)[C@H](CC(C)C)OC2O)cc1` (stereo partly drawn) [Compound 9, (2S,5S)-6-hydroxy-5-((4-methoxyphenyl)methyl)-2-(2-methylpropyl)-3-morpholinone] the value was 0.68 µM; for `CCCCOc1ccc(C[C@@H]2NC(=O)[C@H](CC(C)C)OC2O)cc1` (stereo partly drawn) [Compound 10, (2S,5S)-5-((4-butoxyphenyl)methyl)-6-hydroxy-2-(2-methylpropyl)-3-morpholinone], 0.52 µM; for `CC(C)C[C@@H]1OC(O)[C@H](Cc2ccc(OCC3CCCCC3)cc2)NC1=O` (stereo partly drawn) [Compound 11, (2S,5S)-5-((4-(cyclohexylmethoxy)phenyl)methyl)-6-hydroxy-2-(2-methylpropyl)-3-morpholinone], 0.45 µM. `CC(C)C[C@@H]1OC(O)[C@H](Cc2ccccc2F)NC1=O` (stereo partly drawn) [Compound 12, (2S,5S)-5-((2-fluorophenyl)methyl)-6-hydroxy-2-(2-methylpropyl)-3-morpholinone] returned a melting point of 83.9 to 87.9 °C. Further, the IC50 in data set [1] came out at 2.1 µM. With `CC(C)C[C@@H]1OC(O)[C@H](Cc2ccccc2Cl)NC1=O` (stereo partly drawn) [Compound 13, (2S,5S)-5-((2-chlorophenyl)methyl)-6-hydroxy-2-(2-methylpropyl)-3-morpholinone], the IC50 in data set [1] came out at 0.93 µM. Still for that read-out and setting: for `CC(C)C[C@@H]1OC(O)[C@H](COCc2ccccc2)NC1=O` (stereo partly drawn) [Compound 14, (2S,5S)-5-benzyloxymethyl-6-hydroxy-2-(2-methylpropyl)-3-morpholinone] the value was 0.82 µM.

In turn, `CC(C)C[C@@H]1OC(O)[C@H](CCCCNC(=O)c2ccccc2)NC1=O` (stereo partly drawn) [Compound 16, (2S,5S)-5-(4-(benzoylamino)butyl)-6-hydroxy-2-(2-methylpropyl)-3-morpholinone] registered a melting point of 128.4 to 129 °C. Further, in data set [1], the IC50 turned out to be 1.1 µM. For “(2S,5S)-5-((4-biphenyl)methyl)-6-hydroxy-2-(2-methylpropyl)-3-morpholinone [Compound 15]”, the IC50 in data set [1] is 0.25 µM.
